Data set [1] is described as follows: logP by HPLC on reversed phase columns (EEC directive 79/831 Annex V.A8). The settings on record: for chromatographic logP: reversed phase HPLC columns. Type of data set: physicochemical. As for the experimental part:
Measurement of logP values was performed according EEC directive 79/831 Annex V.A8 by HPLC (High Performance Liquid Chromatography) on reversed phase columns with the following methods:
^[a] measurement of LC-MS was done at pH 2.7 with 0.1% formic acid in water and with acetonitrile (contains 0.1% formic acid) as eluent with a linear gradient from 10% acetonitrile to 95% acetonitrile. […]

In another data set the test system is Phytophthora infestans. Format: in vivo. To be noted: tomato plants, preventive spray, 500 ppm of active ingredient, evaluated 7 days after inoculation; 0% = untreated control, 100% = no disease.
The test system of the next data set is Plasmopara viticola. Description: Plasmopara test (grapevines)/preventive. Type of data set: in vivo. The settings on record: preventive spray, 100 ppm of active ingredient, evaluated 6 days after inoculation, 0% = untreated control, 100% = no disease. As to the method: Plasmopara Test (Grapevines)/Preventive • Solvent: 24.5 parts by weight of acetone • 24.5 parts by weight of dimethylacetamide • Emulsifier: 1 part by weight of alkylaryl polyglycol ether
To produce a suitable preparation of active compound, 1 part by weight of active compound is mixed with the stated amounts of solvent and emulsifier, and the concentrate is diluted with water to the desired concentration. To test for preventive activity, young plants are sprayed with the preparation of active compound at the stated rate of application. After the spray coating has dried on, the plants are inoculated with an aqueous spore suspension of Plasmopara viticola and then remain for 1 day in an incubation cabinet at approximately 20° C. and a relative atmospheric humidity of 100%. The plant is subsequently placed for 4 days in a greenhouse at approximately 21° C. and a relative atmospheric humidity of approximately 90%. The plants are then misted and placed for 1 day in an incubation cabinet. The test is evaluated 6 days after the inoculation. 0% means an efficacy which corresponds to that of the untreated control, while an efficacy of 100% means that no disease is observed.

Where [2] appears, read: method [a]: LC-MS at pH 2.7, 0.1% formic acid in water / acetonitrile, gradient 10% to 95% acetonitrile.
[3] abbreviates: pH 2.7, value in preparation example text, method not given.
Where [4] appears, read: pH 2.7, method [a]: LC-MS at pH 2.7, 0.1% formic acid in water / acetonitrile, gradient 10% to 95% acetonitrile.

Each structure is given as a SMILES string.

The term LogP denotes a log measure of how a compound divides between an organic and an aqueous phase. Low values mean a more hydrophilic compound, high ones a more lipophilic compound. Regarding `CC(C)C(C)NC(=C(C#N)C(=O)C1CCOC1)c1ccccc1Br` (mixture of isomers) [Example 1], the LogP in data set [1] (setting [2]) is 3.60^[a]. `CC(C)C(C)NC(=C(C#N)C(=O)C1CCCCO1)c1ccccc1Br` (mixture of isomers) [Example 26]: the LogP in data set [1] (setting [2]) is 3.80^[a].

Consider `CC(NC(=C(C#N)C(=O)C1CCOC1)c1ccccc1Br)C1CC1` (mixture of isomers) [Example 30], for which, in data set [1] (setting [2]), the LogP was 3.25^[a].

As a reminder, the chromatographic logP is a lipophilicity value derived from retention on a column. Turning to `CC(C)C(C)NC(=CC#N)c1ccccc1Cl` (stereo not shown) [3-(2-chlorophenyl)-3-[(3-methylbutan-2-yl)amino]acrylonitrile], the chromatographic logP in data set [1] (setting [3]) came to 3.27.

`N#CC=C(Cl)c1ccccc1Cl` [3-chloro-3-(2-chlorophenyl)acrylonitrile] displayed a chromatographic logP in data set [1] (setting [3]) of 3.02. The same compound came in with a log partition coefficient (LogP) in data set [1] (value in preparation example text, method not given) of 3.23. Turning to `CC(C)C(C)NC(=C(C#N)C(=O)CC1CC1)c1ccccc1Cl` (stereo not shown) [Example 2], in data set [1] (setting [2]), the LogP is 4.27^[a].

In the case of `COCCC(=O)C(C#N)=C(NC(C)C1CC1)c1ccccc1Br` (stereo not shown) [Example 3], the LogP in data set [1] (setting [2]) was 3.20^[a]. As to `CC(C)C(C)NC(=C(C#N)C(=O)C1CCCC1)c1ccccc1Br` (stereo not shown) [Example 4], the LogP in data set [1] (setting [2]) was 5.05^[a]. In the case of `COCC(=O)C(C#N)=C(NC(C)C1CC1)c1ccccc1Br` (stereo not shown) [Example 5], the Efficacy in % in the data set on Phytophthora infestans was found to be 93%. For the same compound, the LogP in data set [1] (setting [2]) was 3.00^[a]. On to `CC(C)C(C)NC(=C(C#N)C(=O)c1ccco1)c1ccccc1Cl` (stereo not shown) [Example 6], for which the LogP in data set [1] (setting [2]) was 3.87^[a].

Regarding `CC(NC(=C(C#N)C(=O)CCl)c1ccccc1Br)C1CC1` (stereo not shown) [Example 7], in data set [1] (setting [2]), the LogP was 3.50^[a].

Consider `CC(C)C(C)NC(=C(C#N)C(=O)C1CC1)c1ccccc1Br` (stereo not shown) [Example 8], for which, in data set [1] (setting [2]), the LogP was 4.21^[a]. Consider `CCC(=O)C(C#N)=C(NC(C)C(C)C)c1ccccc1Br` (stereo not shown) [Example 9], for which the LogP in data set [1] (setting [2]) was 4.04^[a]. `CC(NC(=C(C#N)C(=O)c1ccco1)c1ccccc1Br)C1CC1` (stereo not shown) [Example 10]: the LogP in data set [1] (setting [2]) is 3.50^[a]. Regarding `CC(NC(=C(C#N)C(=O)C1CCC1)c1ccccc1Br)C1CC1` (stereo not shown) [Example 11], in data set [1] (setting [2]), the LogP was 4.20^[a]. As for `CCCCC(=O)C(C#N)=C(NC(C)C(C)C)c1ccccc1Br` (stereo not shown) [Example 12], the LogP in data set [1] (setting [2]) was 4.85^[a]. `CCCC(=O)C(C#N)=C(NC(C)C(C)C)c1ccccc1Cl` (stereo not shown) [Example 13, 2-{(2-chlorophenyl)[(3-methylbutan-2-yl)amino]methylene}-3-oxohexanenitrile]: the chromatographic logP in data set [1] (setting [4]) and in data set [1] (setting [3]) was 4.44 each time. On to `CCCCC(=O)C(C#N)=C(NC(C)C(C)C)c1ccccc1Cl` (stereo not shown) [Example 14], for which the LogP in data set [1] (setting [2]) was 4.81^[a]. As for `CCCCC(=O)C(C#N)=C(NC(C)C1CC1)c1ccccc1Br` (stereo not shown) [Example 15], the LogP in data set [1] (setting [2]) was 4.40^[a].

As for `CC(C)C(C)NC(=C(C#N)C(=O)CC1CC1)c1ccccc1Br` (stereo not shown) [Example 16], the Efficacy in % in the data set with Phytophthora infestans is recorded as 95%. Also, in data set [1] (setting [2]), the LogP is 4.34^[a]. Turning to `CCCC(=O)C(C#N)=C(NC(C)C(C)C)c1ccccc1Br` (stereo not shown) [Example 17], the Efficacy in % is recorded as 100% in the data set with Phytophthora infestans and 93% in the data set with Plasmopara viticola. Further, in data set [1] (setting [2]), the LogP is 4.40^[a]. Turning to `CC(C)C(C)NC(=C(C#N)C(=O)CCl)c1ccccc1Cl` (stereo not shown) [Example 18], in data set [1] (setting [2]), the LogP was 3.78^[a]. For the compound `COCC(=O)C(C#N)=C(NC(C)C(C)C)c1ccccc1Br` (stereo not shown) [Example 19], the figures for the Efficacy in % in the data set with Phytophthora infestans and in the data set with Plasmopara viticola were 95% and 74%, respectively. The LogP in data set [1] (setting [2]) was 3.27^[a]. With `CC(NC(=C(C#N)C(=O)C1CC1)c1ccccc1Br)C1CC1` (stereo not shown) [Example 20], in data set [1] (setting [2]), the LogP was 3.90^[a]. For the compound `CNCC(=O)C(C#N)=C(NC(C)C(C)C)c1ccccc1Cl` (stereo not shown) [Example 21], the LogP in data set [1] (setting [2]) was 1.89^[a]. Take `CC(C)C(C)NC(=C(C#N)C(=O)C1CCC1)c1ccccc1Br` (stereo not shown) [Example 22]: the LogP in data set [1] (setting [2]) is 4.64^[a].

For `COCC(=O)C(C#N)=C(NC(C)C(C)C)c1ccccc1Cl` (stereo not shown) [Example 23], the lipophilicity (LogP) in data set [1] (setting [2]) was 3.21^[a]. `CC(NC(=C(C#N)C(=O)CC1CC1)c1ccccc1Br)C1CC1` (stereo not shown) [Example 24]: in the data set with Phytophthora infestans, the Efficacy in % was found to be 85%. In addition, the LogP in data set [1] (setting [2]) was 4.06^[a]. In the case of `CC(NC(=C(C#N)C(=O)Cc1ccccc1)c1ccccc1Br)C1CC1` (stereo not shown) [Example 25], the LogP in data set [1] (setting [2]) was 4.20^[a].

`COCCC(=O)C(C#N)=C(NC(C)C(C)C)c1ccccc1Cl` (stereo not shown) [Example 27]: in data set [1] (setting [2]), the LogP was 3.55^[a]. For `CCC(=O)C(C#N)=C(NC(C)C1CC1)c1ccccc1Br` (stereo not shown) [Example 28], the LogP in data set [1] (setting [2]) is 3.60^[a]. For `CC(NC(=C(C#N)C(=O)C1CCCC1)c1ccccc1Br)C1CC1` (stereo not shown) [Example 29], the LogP in data set [1] (setting [2]) is 4.60^[a]. In the case of `CC(C)C(C)NC(=C(C#N)C(=O)C1CC1)c1ccccc1Cl` (stereo not shown) [Example 31], the LogP in data set [1] (setting [2]) was 4.18^[a]. On to `C[C@H](NC(=C(C#N)C(=O)C1CCCCO1)c1ccccc1Br)C1CC1` (stereo partly shown) [Example 32], for which, in data set [1] (setting [2]), the LogP was 3.50^[a]. For `CC(C)CC(=O)C(C#N)=C(N[C@@H](C)C(C)C)c1ccccc1Cl` [Example 33], in data set [1] (setting [2]), the LogP is 4.73^[a]. Compound `CCCC(=O)C(C#N)=C(N[C@@H](C)C1CC1)c1ccccc1Br` [Example 34] displayed an Efficacy in % in the data set on Phytophthora infestans of 93%. In addition, the LogP in data set [1] (setting [2]) was 4.10^[a]. Consider `CCCC(=NOC)C(C#N)=C(NC(C)C(C)C)c1ccccc1Cl` (stereo not shown) [Example 35, 2-{(2-chlorophenyl)[(3-methylbutan-2-yl)amino]methylene}-3-(methoxyimino)hexanenitrile], for which the chromatographic logP in data set [1] (setting [4]) and in data set [1] (setting [3]) was 5.34 each time.

For the compound `CCCC(=NC#N)C(C#N)=C(N[C@@H](C)C(C)C)c1ccccc1Cl` [Example 36], the LogP in data set [1] (setting [2]) was 3.85^[a].

Values taken from patent US9351489B2 (priority 2010, dated 2016).
